Test results from ChEMBL document CHEMBL1201862, “PubChem BioAssay data set” (2004).
Blank lines part the entries; values can stand above or below the compound they belong to. The source made the active and inactive calls.

Tests used:
[1] = biological target: Troponin, cardiac muscle (Homo sapiens, UniProt P19429+P45379+P63316); test: Fluorescence-based biochemical high throughput dose response assay for activators of the calcium sensitivity of cardiac Regulated Thin Filaments (RTF). [Related pubchem assays (depositor defined):AID493008, AID493018, AID504382, AID504383]; type: protein-complex assay
[2] = biological target: T1, Heat shock factor protein 1 (Mus musculus, UniProt P38532); test: decrease of HSF1-responsive luciferase luminescence – cell-based, NIH3T3, dose retest, confirmation (AID 2382); type: functional;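 also: NIH3T3 fibroblasts with HSF1-driven luciferase reporter stressed by proteasome inhibitor MG132; luminescence from HSF1-driven luciferase expression after 8 hours of MG132 stress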
T1 sequence (P38532 whole entry): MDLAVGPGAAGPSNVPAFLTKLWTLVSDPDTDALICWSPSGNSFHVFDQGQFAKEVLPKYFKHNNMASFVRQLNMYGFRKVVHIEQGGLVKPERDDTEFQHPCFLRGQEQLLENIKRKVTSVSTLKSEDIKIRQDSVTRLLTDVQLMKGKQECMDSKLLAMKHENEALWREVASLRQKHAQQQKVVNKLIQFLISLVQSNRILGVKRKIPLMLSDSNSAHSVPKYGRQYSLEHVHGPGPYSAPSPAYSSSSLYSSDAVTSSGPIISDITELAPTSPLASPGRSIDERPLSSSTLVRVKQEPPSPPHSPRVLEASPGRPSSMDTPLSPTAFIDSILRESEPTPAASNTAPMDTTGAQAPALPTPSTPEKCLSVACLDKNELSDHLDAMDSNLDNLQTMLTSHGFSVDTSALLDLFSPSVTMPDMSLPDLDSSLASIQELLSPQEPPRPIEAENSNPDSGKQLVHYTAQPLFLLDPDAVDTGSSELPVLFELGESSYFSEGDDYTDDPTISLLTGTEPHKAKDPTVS

[3] = biological target: T2, Exodeoxyribonuclease V (Escherichia coli (strain K12), UniProt P04993+P07648+P08394); test: RecBCD inhibition via phage-restricted bacterial growth – absorbance, V66 E. coli, mutant T4 phage, counter-screen for AddAB inhibitor project, dose response (AID 492957); type: functional, cell-based, Escherichia coli str. K-12 substr. MG1655
T2 sequence (P04993 whole entry): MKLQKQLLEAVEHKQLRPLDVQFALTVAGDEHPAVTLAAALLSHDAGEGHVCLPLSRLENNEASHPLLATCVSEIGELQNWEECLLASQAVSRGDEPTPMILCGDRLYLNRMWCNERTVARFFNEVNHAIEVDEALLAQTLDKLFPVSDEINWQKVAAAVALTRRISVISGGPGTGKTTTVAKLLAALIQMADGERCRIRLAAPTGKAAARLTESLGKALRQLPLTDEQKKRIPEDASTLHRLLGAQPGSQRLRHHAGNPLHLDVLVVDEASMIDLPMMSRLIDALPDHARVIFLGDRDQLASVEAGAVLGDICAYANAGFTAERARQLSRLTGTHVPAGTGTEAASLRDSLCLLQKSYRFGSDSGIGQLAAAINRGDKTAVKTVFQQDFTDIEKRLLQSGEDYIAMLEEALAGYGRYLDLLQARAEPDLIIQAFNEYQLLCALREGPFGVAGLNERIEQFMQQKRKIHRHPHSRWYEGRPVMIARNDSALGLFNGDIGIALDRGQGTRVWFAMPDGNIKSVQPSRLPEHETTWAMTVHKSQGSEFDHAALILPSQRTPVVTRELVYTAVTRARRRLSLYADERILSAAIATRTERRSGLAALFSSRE
T2 sequence (P07648 whole entry): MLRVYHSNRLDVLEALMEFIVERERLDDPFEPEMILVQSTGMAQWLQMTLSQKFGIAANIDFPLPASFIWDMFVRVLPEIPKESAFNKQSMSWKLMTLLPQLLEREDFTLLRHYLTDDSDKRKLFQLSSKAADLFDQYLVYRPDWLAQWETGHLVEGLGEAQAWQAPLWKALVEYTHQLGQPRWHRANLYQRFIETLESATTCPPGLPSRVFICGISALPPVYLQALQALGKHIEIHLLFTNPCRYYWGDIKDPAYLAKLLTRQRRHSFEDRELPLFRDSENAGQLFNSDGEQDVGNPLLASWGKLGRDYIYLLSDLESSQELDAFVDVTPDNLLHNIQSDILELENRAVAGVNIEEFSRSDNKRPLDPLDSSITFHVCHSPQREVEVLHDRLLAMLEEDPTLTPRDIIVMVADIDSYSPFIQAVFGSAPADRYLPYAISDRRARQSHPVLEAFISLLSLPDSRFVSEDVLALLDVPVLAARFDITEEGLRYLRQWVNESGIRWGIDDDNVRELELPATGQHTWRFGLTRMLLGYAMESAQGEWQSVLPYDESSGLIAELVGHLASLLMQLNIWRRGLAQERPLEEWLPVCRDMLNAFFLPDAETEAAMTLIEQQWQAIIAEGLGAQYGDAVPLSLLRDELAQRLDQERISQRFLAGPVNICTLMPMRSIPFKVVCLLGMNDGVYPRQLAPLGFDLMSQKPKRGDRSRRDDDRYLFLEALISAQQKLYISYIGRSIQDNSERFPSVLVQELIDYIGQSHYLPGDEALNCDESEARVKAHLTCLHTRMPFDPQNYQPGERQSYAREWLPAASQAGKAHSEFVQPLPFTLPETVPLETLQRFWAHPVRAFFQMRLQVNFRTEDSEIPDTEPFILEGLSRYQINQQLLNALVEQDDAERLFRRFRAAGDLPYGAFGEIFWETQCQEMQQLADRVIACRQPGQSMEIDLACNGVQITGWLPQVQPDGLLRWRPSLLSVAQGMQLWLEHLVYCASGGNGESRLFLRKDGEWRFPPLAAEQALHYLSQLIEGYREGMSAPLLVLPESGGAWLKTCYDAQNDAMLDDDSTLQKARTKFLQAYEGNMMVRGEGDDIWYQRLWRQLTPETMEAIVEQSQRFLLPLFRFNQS
T2 sequence (P08394 whole entry): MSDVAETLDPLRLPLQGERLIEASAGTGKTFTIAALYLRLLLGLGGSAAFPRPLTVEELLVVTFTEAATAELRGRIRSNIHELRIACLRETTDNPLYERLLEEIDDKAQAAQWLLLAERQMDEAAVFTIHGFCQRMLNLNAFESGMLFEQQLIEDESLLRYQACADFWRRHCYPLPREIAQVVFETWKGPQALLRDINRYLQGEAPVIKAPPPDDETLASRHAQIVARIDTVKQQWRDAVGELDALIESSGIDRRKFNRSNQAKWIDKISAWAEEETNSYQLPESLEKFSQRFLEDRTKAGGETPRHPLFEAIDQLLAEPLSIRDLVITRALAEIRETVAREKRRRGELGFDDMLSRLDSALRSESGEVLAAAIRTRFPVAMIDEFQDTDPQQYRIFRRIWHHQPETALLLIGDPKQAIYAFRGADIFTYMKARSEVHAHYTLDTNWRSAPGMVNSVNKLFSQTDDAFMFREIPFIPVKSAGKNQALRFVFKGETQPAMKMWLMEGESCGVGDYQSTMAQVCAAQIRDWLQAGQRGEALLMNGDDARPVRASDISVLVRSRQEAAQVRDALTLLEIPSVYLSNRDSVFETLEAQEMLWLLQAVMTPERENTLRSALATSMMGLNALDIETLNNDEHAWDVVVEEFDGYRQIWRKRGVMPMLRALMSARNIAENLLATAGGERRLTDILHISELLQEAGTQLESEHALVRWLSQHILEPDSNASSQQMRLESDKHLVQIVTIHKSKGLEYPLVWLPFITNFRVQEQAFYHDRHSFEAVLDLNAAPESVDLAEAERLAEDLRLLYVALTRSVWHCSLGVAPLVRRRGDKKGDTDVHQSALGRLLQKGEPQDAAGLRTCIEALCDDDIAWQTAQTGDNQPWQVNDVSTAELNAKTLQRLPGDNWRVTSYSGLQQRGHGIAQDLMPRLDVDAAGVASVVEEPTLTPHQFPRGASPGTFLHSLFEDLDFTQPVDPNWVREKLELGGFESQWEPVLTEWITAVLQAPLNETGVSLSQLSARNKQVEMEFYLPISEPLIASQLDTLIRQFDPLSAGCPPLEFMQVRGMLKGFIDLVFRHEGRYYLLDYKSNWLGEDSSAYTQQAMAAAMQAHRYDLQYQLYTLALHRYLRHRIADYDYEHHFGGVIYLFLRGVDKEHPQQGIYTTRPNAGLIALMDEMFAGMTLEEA

[4] = Counterscreen for AddAB inhibitors: absorbance-based bacterial cell-based high throughput dose response assay for inhibitors of bacterial viability. [Related pubchem assays (depositor defined):AID435030, AID449728, AID449731, AID488942, AID488955, AID488956]; type: functional
[5] = tested on: HEK293; test: cells; conditions: Homo sapiens
[6] = tested on: HEK293; test: cells; conditions: Homo sapiens; remark: listed apart in the source

EC50 [1]: > 71.5 µM (inactive) | EC50 [2]: > 195 µM (not active)
SMILES: COc1ccc(CNC(=O)c2sc(=S)n(-c3ccccc3)c2N)cc1

SMILES: CC(=O)c1ccc(NC(S)=NC(NC(=O)c2ccco2)C(Cl)(Cl)Cl)cc1 (configuration not stated)
IC50 [3]: > 119 µM (inactive) | IC50 [4]: > 119 µM (inactive)

EC50 [1]: > 71.4 µM (inactive)
SMILES: Cc1ccc(C(=O)Nc2ccc3c(c2)ncn3C)cc1

SMILES: CCN(CC)S(=O)(=O)c1cc(NC(=O)CSCc2c(C)noc2C)ccc1C
EC50 [5]: > 59.6 µM (inactive) | EC50 [6]: > 59.6 µM (inactive)
